pEC50: −log10 of the molar value.
Columns and labels:
[1] = continuous intake of high doses; classical organic nitrates and EP compounds; cited from earlier work
[2] = tested on: isolated rat aortic rings; assay: Vasorelaxation in vitro on isolated rat aortic rings precontracted with phenylephrine; assay type: cell-based; settings: rat aortic rings precontracted with 2×10^-7 mol/l phenylephrine; cumulative addition; n = 3-6; read-out: EC50 (concentration which leads to a 50% relaxation of the precontracted vascular ring)
Description: The vasorelaxant effect of the compounds of the general formula I was investigated in vitro on isolated rat aortic rings. For this purpose, rats were anaesthetized and then the thoracic aorta was removed, freed of adipose and adventitious tissue and divided into annular segments about 5 mm wide. The aortic rings were transferred into temperature-controlled baths containing Tyrodes' solution through which 5% CO2 /95% O2 was passed, and were subjected to a preload of 2 g. While continuously recording the change in force, the vascular rings were precontracted after equilibration with 2×10^-7 mol/l phenylephrine for 90 minutes. After a stable contraction level was reached, the nitrato compounds were cumulatively added to the vessel bath liquid, the next higher concentration in each case being added only after a stable relaxation level had been reached. The concentration of the particular compound which leads to a 50% relaxation of the precontracted vascular ring (EC50) was found from the resulting concentration-effect plots. Table 1 contains the EC50 values found in this way for selected exemplary compounds.

[3] = tested on: arterial, central venous and pulmonary artery blood pressure in a conscious dog; assay: Effects on blood pressure in a conscious dog; assay type: in vivo; parameters: unit not given here; settings: intravenous, 13.4 μg/kg disulphide compounds
Procedure: The SAP was measured using a tip catheter transducer inserted into the aorta via the femoral artery, and the CVP and the PAP were measured using a Swan-Ganz catheter which was inserted via the left jugular vein and whose catheter tips were advanced as far as the pulmonary artery and the right atrium respectively and through whose lumens the particular pressure was passed to Statham® pressure transducers. To quantify the lowering of blood pressure elicited by the compound according to the invention, the areas under the curves (AUC) of the recorded changes in blood pressure were determined. Table 2 contains the AUC values for the relevant lowering of blood pressure after intravenous administration of 13.4 μg/kg of the disulphide compounds according to the invention and after intravenous administration of 26.8 μg/kg isosorbide 5-mononitrate (5-ISMN).

SMILES | nitrate tolerance (attenuation of the effect) [1] | pEC50 [2] | AUC (CVP), lowering of central venous blood pressure [3] | AUC (PAP), lowering of pulmonary artery blood pressure [3] | AUC (SAP), lowering of systolic arterial blood pressure [3]
O=[N+]([O-])O[C@@H]1CO[C@H]2[C@@H]1OC[C@@H]2O [Example 5-ISMN, isosorbide 5-mononitrate, reference compound] | distinct attenuation of the effect, nitrate tolerance | – | – | – | –
CC(C)(C)OC(=O)[C@H](CSSC[C@H](NC(=O)C(C)(C)CO[N+](=O)[O-])C(=O)OC(C)(C)C)NC(=O)C(C)(C)CO[N+](=O)[O-] [N,N'-di(3-nitratopivaloyl)-L-cystine di-tert.-butyl ester] | – | 4.23 | – | – | –
CCOC(=O)[C@H](CSSC[C@H](NC(=O)C(C)(C)CO[N+](=O)[O-])C(=O)OCC)NC(=O)C(C)(C)CO[N+](=O)[O-] [N,N'-di(3-nitratopivaloyl)-L-cystine diethyl ester] | – | 5.82 | 85.7 | 12.0 | 94.1
CNC(=O)[C@H](CSSC[C@H](NC(=O)C(C)(C)CO[N+](=O)[O-])C(=O)NC)NC(=O)C(C)(C)CO[N+](=O)[O-] [N,N'-di(3-nitratopivaloyl)-L-cystine-di(N-methylamide)] | – | 4.62 | 33.7 | 3.5 | 41.9
CC(C)(CO[N+](=O)[O-])C(=O)N[C@@H](CSSC[C@H](NC(=O)C(C)(C)CO[N+](=O)[O-])C(=O)O)C(=O)O [N,N'-di(3-nitratopivaloyl)-L-cystine] | – | 3.92 | 67.9 | 2.7 | 17.3
CC(C)(CO[N+](=O)[O-])C(=O)N[C@@H](CSSC[C@H](NC(=O)C(C)(C)CO[N+](=O)[O-])C(N)=O)C(N)=O [N,N'-di(3-nitratopivaloyl)-L-cystinediamide] | – | 4.52 | 46.9 | 28.1 | 55.3
CC(C)(CO[N+](=O)[O-])C(=O)N[C@@H](CSSC[C@H](NC(=O)C(C)(C)CO[N+](=O)[O-])C(=O)N1CCCCC1)C(=O)N1CCCCC1 [N,N'-di(3-nitratopivaloyl)-L-cystinedipiperidide] | – | 4.00 | 36.9 | 18.5 | 10.4
O=[N+]([O-])OCC(CO[N+](=O)[O-])O[N+](=O)[O-] [glycerol trinitrate] | distinct attenuation of the effect, nitrate tolerance | – | – | – | –
